Source: patent US8802597B2, “Herbicidal pyrimidines” (E I du Pont de Nemours and Company, priority 2003, dated 2014)
Read-outs that look alike come from different tables or passages of the source.

Key:
Type in all cases: in vivo
[1] = system: umbrella sedge (Cyperus difformis); test: Test B flooded paddy test; details: Cyperus difformis, Flood, 1000 g ai/ha; scale 0 to 100; read-out: Plant response rating, Sedge, Umbrella
Method in brief: (§1)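 Rice, umbrella sedge, duck salad and barnyardgrass grown to 2-leaf stage under flooded paddy conditions and treated with formulated test chemicals. Kept in greenhouse 13–15 days, then visually rated against untreated controls on a 0–100 scale (0 no effect, 100 complete control).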

rice (Oryza sativa) = test: Test B flooded paddy test; details: Oryza sativa, Flood, 1000 g ai/ha; scale 0 to 100; read-out: Plant response rating, Rice
Method in brief: as §1

[2] = system: barnyardgrass (Echinochloa crus-galli); test: Test B flooded paddy test; details: Echinochloa crus-galli, Flood, 1000 g ai/ha; scale 0 (no effect) to 100 (complete control); read-out: Plant response rating, Barnyardgrass
Method in brief: as §1

[3] = system: duck salad (Heteranthera limosa); test: Test B flooded paddy test; details: Heteranthera limosa, Flood, 1000 g ai/ha; scale 0 to 100; read-out: Plant response rating, Ducksalad
Method in brief: as §1

[4] = system: morningglory (Ipomoea coccinea); test: Test B pre/postemergence; details: Ipomoea; for pest or weed control at 62 g/ha: 62 g ai/ha; for pest or weed control at 250 g/ha: 250 g ai/ha
Method in brief: (§2)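 Greenhouse whole-plant test; surfactant-containing non-phytotoxic solvent formulation; pre- and postemergence applications made simultaneously; post plants 2–18 cm, 1- to 4-leaf; visual scoring at 13–15 days on 0–100 scale relative to controls.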

[5] = system: giant foxtail (Setaria faberii); test: Test B pre/postemergence; details: Setaria faberi; for pest or weed control at 62 g/ha: 62 g ai/ha; for pest or weed control at 250 g/ha: 250 g ai/ha
Method in brief: as §2

[6] = system: velvetleaf (Abutilon theophrasti); test: Test B pre/postemergence; details: Abutilon theophrasti; for pest or weed control at 62 g/ha: 62 g ai/ha; for pest or weed control at 250 g/ha: 250 g ai/ha
Method in brief: as §2

[7] = system: cocklebur (Xanthium strumarium); test: Test B pre/postemergence; details: Xanthium strumarium; for pest or weed control at 62 g/ha: 62 g ai/ha; for pest or weed control at 250 g/ha: 250 g ai/ha
Method in brief: as §2

[8] = system: crabgrass (Digitaria sanguinalis); test: Test B pre/postemergence; details: Digitaria sanguinalis; for pest or weed control at 62 g/ha: 62 g ai/ha; for pest or weed control at 250 g/ha: 250 g ai/ha
Method in brief: as §2

corn (Zea mays) = test: Test B pre/postemergence; details: Zea mays; for Corn plant response rating (crop injury, 0 = no effect, 100 = complete kill) at 250 g/ha: 250 g ai/ha
Method in brief: as §2

[9] = system: wheat (Triticum aestivum); test: Test B pre/postemergence; details: Triticum aestivum; for plant injury at 62 g/ha: 62 g ai/ha; for plant injury at 250 g/ha: 250 g ai/ha
Method in brief: as §2

[10] = system: lambsquarters (Chenopodium album); test: Test B pre/postemergence; details: Chenopodium album; for pest or weed control at 62 g/ha: 62 g ai/ha; for pest or weed control at 250 g/ha: 250 g ai/ha
Method in brief: as §2

[11] = system: pigweed (Amaranthus retroflexus); test: Test B pre/postemergence; details: Amaranthus retroflexus; for pest or weed control at 62 g/ha: 62 g ai/ha; for pest or weed control at 250 g/ha: 250 g ai/ha
Method in brief: as §2

[12] = system: Surinam grass (Brachiaria decumbens); test: Test B pre/postemergence; details: Urochloa decumbens; for pest or weed control at 62 g/ha: 62 g ai/ha; for pest or weed control at 250 g/ha: 250 g ai/ha
Method in brief: as §2

[13] = system: barnyardgrass (Echinochloa crus-galli); test: Test B pre/postemergence; details: Echinochloa crus-galli; for pest or weed control at 62 g/ha: 62 g ai/ha; for pest or weed control at 250 g/ha: 250 g ai/ha
Method in brief: as §2

[14] = system: blackgrass (Alopecurus myosuroides); test: Test B postemergence; details: Alopecurus myosuroides, post-emergence
Method in brief: as §2

wild oat (Avena fatua) = test: Test B postemergence; details: Avena fatua, post-emergence
Method in brief: as §2

[15] = pre-emergence, Preemergence, scale 0 to 100 (0 no effect, 100 complete control), read-out: Plant response rating, Wheat
[16] = pre-emergence, Preemergence, scale 0 to 100 (0 no effect, 100 complete control), read-out: Plant response rating, Barnyardgrass

CCOC(=O)c1nc(C2CC2)nc(N)c1Br [Compound 1, ethyl 6-amino-5-bromo-2-cyclopropyl-4-pyrimidinecarboxylate]
80%: pest or weed control at 1000 g/ha [2] | pest or weed control at 1000 g/ha [3] | pest or weed control at 250 g/ha ([5]; post-emergence, Postemergence, scale 0 to 100, read-out: Plant response rating, Foxtail, Giant) | Corn plant response rating (crop injury, 0 = no effect, 100 = complete kill) at 250 g/ha (corn (Zea mays); pre-emergence, Preemergence, scale 0 to 100 (0 no effect, 100 complete control)) | pest or weed control at 250 g/ha ([12]; pre-emergence, Preemergence, scale 0 to 100 (0 no effect, 100 complete control), read-out: Plant response rating, Surinam Grass)
50%: pest or weed control at 62 g/ha ([5]; post-emergence, Postemergence, scale 0 to 100 (0 no effect, 100 complete control), read-out: Foxtail, Giant plant response rating) | pest or weed control at 62 g/ha ([12]; pre-emergence, Preemergence, scale 0 to 100, 0 no effect, 100 complete control, read-out: Plant response rating, Surinam Grass) | pest or weed control at 62 g/ha ([13]; post-emergence, Postemergence, scale 0 to 100 (0 no effect, 100 complete control), read-out: Barnyardgrass plant response rating)
60%: plant injury at 250 g/ha [9, 15] | pest or weed control at 62 g/ha ([12]; post-emergence, Postemergence, scale 0 to 100 (0 no effect, 100 complete control), read-out: Surinam Grass plant response rating) | pest or weed control at 62 g/ha [13, 16] | pest or weed control at 250 g/ha (wild oat (Avena fatua); 250 g ai/ha, scale 0 to 100, read-out: Plant response rating, Oat, Wild)
100%: pest or weed control at 250 g/ha ([4]; post-emergence, Postemergence, scale 0 to 100, read-out: Plant response rating, Morningglory) | pest or weed control at 250 g/ha ([4]; pre-emergence, Preemergence, scale 0 to 100 (0 no effect, 100 complete control), read-out: Plant response rating, Morningglory) | pest or weed control at 250 g/ha ([6]; pre-emergence, Preemergence, scale 0 to 100 (0 no effect, 100 complete control), read-out: Plant response rating, Velvetleaf) | pest or weed control at 250 g/ha ([7]; pre-emergence, Preemergence, scale 0 to 100 (0 no effect, 100 complete control), read-out: Plant response rating, Cocklebur) | pest or weed control at 62 g/ha ([10]; post-emergence, Postemergence, scale 0 to 100 (0 no effect, 100 complete control), read-out: Lambsquarters plant response rating) | pest or weed control at 250 g/ha ([10]; post-emergence, Postemergence, scale 0 to 100, read-out: Plant response rating, Lambsquarters) | pest or weed control at 62 g/ha ([10]; pre-emergence, Preemergence, scale 0 to 100, 0 no effect, 100 complete control, read-out: Plant response rating, Lambsquarters) | pest or weed control at 250 g/ha ([10]; pre-emergence, Preemergence, scale 0 to 100 (0 no effect, 100 complete control), read-out: Plant response rating, Lambsquarters) | pest or weed control at 250 g/ha ([11]; post-emergence, Postemergence, scale 0 to 100, read-out: Plant response rating, Pigweed) | pest or weed control at 250 g/ha ([11]; pre-emergence, Preemergence, scale 0 to 100 (0 no effect, 100 complete control), read-out: Plant response rating, Pigweed)
30%: pest or weed control at 62 g/ha ([5]; pre-emergence, Preemergence, scale 0 to 100, 0 no effect, 100 complete control, read-out: Plant response rating, Foxtail, Giant) | plant injury at 62 g/ha (corn (Zea mays); post-emergence, Postemergence, 62 g ai/ha, scale 0 to 100 (0 no effect, 100 complete control), read-out: Corn plant response rating) | plant injury at 62 g/ha ([9]; post-emergence, Postemergence, scale 0 to 100 (0 no effect, 100 complete control), read-out: Wheat plant response rating) | plant injury at 62 g/ha [9, 15]
40%: pest or weed control at 62 g/ha ([14]; 62 g ai/ha, scale 0 to 100 (0 no effect, 100 complete control), read-out: Blackgrass plant response rating)
90%: pest or weed control at 62 g/ha ([4]; post-emergence, Postemergence, scale 0 to 100 (0 no effect, 100 complete control), read-out: Morningglory plant response rating) | pest or weed control at 62 g/ha ([4]; pre-emergence, Preemergence, scale 0 to 100, 0 no effect, 100 complete control, read-out: Plant response rating, Morningglory) | pest or weed control at 250 g/ha ([5]; pre-emergence, Preemergence, scale 0 to 100 (0 no effect, 100 complete control), read-out: Plant response rating, Foxtail, Giant) | pest or weed control at 62 g/ha ([6]; post-emergence, Postemergence, scale 0 to 100 (0 no effect, 100 complete control), read-out: Velvetleaf plant response rating) | pest or weed control at 250 g/ha ([6]; post-emergence, Postemergence, scale 0 to 100, read-out: Plant response rating, Velvetleaf) | pest or weed control at 62 g/ha ([6]; pre-emergence, Preemergence, scale 0 to 100, 0 no effect, 100 complete control, read-out: Plant response rating, Velvetleaf) | pest or weed control at 62 g/ha ([7]; post-emergence, Postemergence, scale 0 to 100 (0 no effect, 100 complete control), read-out: Cocklebur plant response rating) | pest or weed control at 250 g/ha ([7]; post-emergence, Postemergence, scale 0 to 100, read-out: Plant response rating, Cocklebur) | pest or weed control at 62 g/ha ([7]; pre-emergence, Preemergence, scale 0 to 100, 0 no effect, 100 complete control, read-out: Plant response rating, Cocklebur) | pest or weed control at 250 g/ha ([8]; post-emergence, Postemergence, scale 0 to 100, read-out: Plant response rating, Crabgrass) | pest or weed control at 62 g/ha ([8]; pre-emergence, Preemergence, scale 0 to 100, 0 no effect, 100 complete control, read-out: Plant response rating, Crabgrass) | pest or weed control at 250 g/ha ([8]; pre-emergence, Preemergence, scale 0 to 100 (0 no effect, 100 complete control), read-out: Plant response rating, Crabgrass) | pest or weed control at 62 g/ha ([11]; post-emergence, Postemergence, scale 0 to 100 (0 no effect, 100 complete control), read-out: Pigweed plant response rating) | pest or weed control at 62 g/ha ([11]; pre-emergence, Preemergence, scale 0 to 100, 0 no effect, 100 complete control, read-out: Plant response rating, Pigweed) | pest or weed control at 250 g/ha ([12]; post-emergence, Postemergence, scale 0 to 100, read-out: Plant response rating, Surinam Grass) | pest or weed control at 250 g/ha ([13]; post-emergence, Postemergence, scale 0 to 100, read-out: Plant response rating, Barnyardgrass) | pest or weed control at 250 g/ha [13, 16]
70%: plant injury at 1000 g/ha (rice (Oryza sativa)) | pest or weed control at 62 g/ha ([8]; post-emergence, Postemergence, scale 0 to 100 (0 no effect, 100 complete control), read-out: Crabgrass plant response rating) | Corn plant response rating (crop injury, 0 = no effect, 100 = complete kill) at 250 g/ha (corn (Zea mays); post-emergence, Postemergence, scale 0 to 100) | plant injury at 250 g/ha ([9]; post-emergence, Postemergence, scale 0 to 100, read-out: Plant response rating, Wheat) | pest or weed control at 250 g/ha ([14]; 250 g ai/ha, scale 0 to 100, read-out: Plant response rating, Blackgrass)
20%: pest or weed control at 1000 g/ha [1] | Corn plant response rating (crop injury, 0 = no effect, 100 = complete kill) at 62 g/ha (corn (Zea mays); pre-emergence, Preemergence, 62 g ai/ha, scale 0 to 100, 0 no effect, 100 complete control) | pest or weed control at 62 g/ha (wild oat (Avena fatua); 62 g ai/ha, scale 0 to 100 (0 no effect, 100 complete control), read-out: Oat, Wild plant response rating)
